Experimental data from US11905268B2, “Anthranilic acid derivatives and their use in the treatment of human cancers” (UNIVERSITY OF CENTRAL FLORIDA RESEARCH FOUNDATION, INC., priority 2018, dated 2024).
Where two headings read alike, the source gives them in different places.

Assays:
[1] = tested on: DFMO treated Chinese hamster ovary (CHO) cells; assay: DFMO/spermidine rescue assay in CHO cells (Assay 2); assay type: cell-based
Procedure: In the reconfirmation assay compounds were run in quadruplicate. […] A PTI compound is expected to block the entry or disrupt the intracellular trafficking of spermidine and inhibit the ability of spermidine to rescue the growth or viability of DFMO treated cells.
DFMO/Spermidine assay Here cells were treated with an inhibitor of polyamine biosynthesis (DFMO) and rescued back to high viability by the presence of exogenous polyamine (spermidine). Putative PTI compounds were screened for their ability to block the entry or intracellular trafficking of exogenous spermidine (or otherwise disrupt the intracellular trafficking of spermidine) by measuring cell viability in the presence of DFMO+spermidine+PTI compound. […] This was followed by adding 10 μL of […] and 5 μM spermidine (FAC 5 mM DFMO and 1 μM spermidine) in assay medium with a Beckman BioRAPTR FRD dispenser or 10 μL of 5 mM DFMO added in assay medium (positive control). […] A PTI compound is expected to block the entry or disrupt the intracellular trafficking of spermidine and inhibit the ability of spermidine to rescue the growth or viability of DFMO treated cells Cytotoxicity

CHO cells [2] = assay: Ant44 rescue assay in CHO cells (Assay 1); assay type: cell-based, Chinese hamster; conditions: for EC50 / IC50: Cricetulus griseus
Procedure: CHO K1 cells were grown in growth medium (RPMI+10% FBS+1×P/S+1% l-glutamine) to 70% confluency, washed in PBS and trypsinized. Cells were plated in assay medium (serum free RPMI+2% FBS+1×l-glutamine+1×P/S+[…] aminoguanidine) at 50000 cells/mL for 200 cells per well in 4 ul using a Thermo Multidrop Combi into a 1536-well white Aurora plate.
Ant44 is a cytotoxic polyamine, i.e., N^1-(9-anthracenyl)-homospermidine. A non-toxic PTI compound would block entry or intracellular trafficking of the Ant44 toxin and rescue the cells back to high viability. Therefore, this screen tested for compounds which rescued cells from Ant44 toxicity. […] This was followed by adding 10 uL of 10 uM Ant44 (FAC 2 uM) in assay medium with a Beckman BioRAPTR FRD dispenser or 10 uL of cells added in assay medium (positive control).

CHO cells [3] = assay: Cytotoxicity screen in CHO cells; conditions: for IC50 at 48 h: Chinese hamster, CHO K1 cells; for Tox (Ant44) / tox (DFMO Assay): toxic above the stated concentration, CHO cells; for Tox (Ant44): listed with Ant44 assay; for tox (DFMO Assay): listed with DFMO assay
Procedure: CHO K1 cells were grown in growth medium to 70% confluency and washed in PBS and trypsinized. […] Cells were spun at 100×g for 1 minute and incubated at 37° C. in a humidified CO2 incubator for 24 hours. […] Cellular ATP content was then assayed by adding 3 uL of ATPLite with a Beckman BioRAPTR FRD dispenser and incubated for 10 minutes at room temperature. Plates were spun at 200×g for 1 minute and read on a Perkin Elmer Viewlux multimode plate reader using luminescence mode. This assay was used for testing dose-response of dry powders.
CHO K1 cells were grown in growth medium to 70% confluency and washed in PBS and trypsinized. Cells were plated in assay medium at 10000 cells/mL for 200 cells per well using a Thermo Multidrop Combi in 20 uL into a white Greiner plate. Cells were spun at 100×g for 1 minute and incubated at 37° C. in a humidified CO2 incubator for 24 hours. […] This was followed by adding by 10 μL of assay medium to all wells with a Beckman BioRAPTR FRD dispenser. The plates were spun at 200×g for 1 minute and incubated at 37° C. in a humidified 5% CO2 incubator for 48 hours. Cellular ATP content was then assayed by adding 20 μL of ATPLite with a Beckman BioRAPTR FRD dispenser and incubated for 10 min at room temperature. Plates were spun at 200×g for 1 minute and read on a Perkin Elmer Envision for multimode plate reader using luminescence mode. Duplicates were run for each compound concentration, and the curves represent the average of the duplicates as percent viability.
The final compound concentration was either 20 μM or 10 μg/mL (depending upon the compound source). A successful PTI in Assay 1 would block the uptake of the toxic Ant44 probe and rescue the cells back to >90% relative growth vs an untreated control. It was critical to also evaluate the toxicity of the PTI by itself as a toxic PTI would give a false negative in Assay1 (and a false positive in Assay 2). […] Assay 2 then evaluated the ability of the compound to inhibit the uptake of a rescuing dose of Spermidine (Spd, 1 μM) into DFMO-treated CHO cells.

[4] = Cricetulus griseus, CHO, Table 7, read-out: SAR IC50 DFMO assay
[5] = Cricetulus griseus, Table 1 HTS top hits, CHO cells, read-out: DFMO Assay IC50
[6] = CHO, Table 7, read-out: SAR IC50 Ant44 assay
[7] = Table 1 HTS top hits, CHO cells, read-out: Ant44 EC50
[8] = Table 1 HTS top hits, CHO cells

| SMILES | IC50 [1, 4] [µM] | IC50 [1, 5] [µM] | IC50 (CHO cells [2]; [6]) [µM] | EC50 (CHO cells [2]; [7]) [µM] | IC50 at 48 h (CHO cells [3]) [µM] | tox (DFMO Assay) (CHO cells [3]) | further results |
| --- | --- | --- | --- | --- | --- | --- | --- |
| COc1ccccc1C(=O)Nc1ccc(N2CCN(c3ccccn3)CC2)cc1C(=O)O [SBI-0801308, 2-(2-methoxybenzamido)-5-(4-(pyridin-2-yl)piperazin-1-yl)benzoic acid] | > 40 | 10 to 20 | 4 | 5 to 10 | 21 | > 20 µM | Active in DFMO assay? ([1]; Table 3, in CHO): No in CHO; DFMO/CHO IC50 ([1]; Table 5B): trace; EC50 (CHO cells [2]; CHO, Table 3, read-out: Ant44 rescue EC50 CHO): 10 µM; IC50 (CHO cells [2]; Table 5B, CHO cells, read-out: Ant44 IC50): 3.6 µM; CHO MTD EC50 (CHO cells [3]; hamster): (22) uM; MTD CHO (CHO cells [3]; hamster): ~10 µM; Tox (Ant44) (CHO cells [3]): > 31 µM |
| Cc1ccc(CC(=O)Nc2ccc(N3CCN(c4ccccc4Cl)CC3)cc2C(=O)O)cc1 [SBI-0800675] | 32 | > 25 | 16 | 31 | > 40 | no tox | Tox (Ant44) (CHO cells [3]): SBI- 0800675.0001 (31 EC50) Tox >31 μM |
| COc1ccc(C(=O)Nc2ccc(N3CCC(C(N)=O)CC3)cc2C(=O)O)cc1 [SBI-0800693] | > 40 | ~10 | > 40 |  |  | SBI- 0800693.0001 (Ic50 ~10 μM, tox >10 μM) | Ant44 EC50 (CHO cells [2]; [8]): SBI- 0800693.0001 (NO EFFECT) |
| COc1ccccc1C(=O)Nc1ccc(N2CCN(CCCc3ccccc3)CC2)cc1C(=O)O [SBI-0814416, 2-(2-methoxybenzamido)-5-(4-(3-phenylpropyl)piperazin-1-yl)benzoic acid] | > 40 |  | > 40 |  | > 40 |  |  |
| COC(=O)c1cc(CN2CCN(c3ccccn3)CC2)ccc1NC(=O)c1ccccc1OC [SBI-0814422, Methyl 2-(2-methoxybenzamido)-5-((4-(pyridin-2-yl)piperazin-1-yl)methyl)benzoate] | > 20 |  | > 20 |  | > 20 |  |  |
| COc1ccccc1C(=O)Nc1ccc(N2CCN(c3cccc(C)c3C)CC2)cc1C(=O)O [SBI-0800676] | 23 | ~15 | 2 | 20 | 28 | SBI- 0800676.0001 (IC50 ~15, tox >15) μM | Tox (Ant44) (CHO cells [3]): SBI- 0800676.0001 (20 EC50) Tox >20 μM |
| COc1ccc(C(=O)Nc2ccc(N3CCC(N4CCCCC4)CC3)cc2C(=O)O)cc1 [SBI-0800694] | > 40 |  |  |  | > 40 |  |  |
| COC(=O)c1cc(N2CCN(c3cc(Cl)ccc3C)CC2)ccc1NC(=O)c1ccccc1OC [SBI-0801724, methyl 5-(4-(5-chloro-2-methylphenyl)piperazin-1-yl)-2-(2-methoxybenzamido)benzoate] | > 40 |  | > 40 |  | > 40 |  |  |
| COc1ccccc1N1CCN(c2ccc(N3C(=O)CCC3=O)cc2[N+](=O)[O-])CC1 [SBI-0800661] | 30 | > 20 | > 40 |  | 27 |  | Ant44 EC50 (CHO cells [2]; [8]): SBI- 0800661.0001 No effect |
| COc1ccccc1C(=O)Nc1ccc(N2CCN(CCc3ccccc3)CC2)cc1C(=O)O [SBI-0814415, 2-(2-methoxybenzamido)-5-(4-phenethylpiperazin-1-yl)benzoic acid] | > 40 |  | > 40 |  | > 40 |  |  |
| COc1ccc(CC(=O)Nc2ccc(N3CCN(c4cc(Cl)ccc4C)CC3)cc2C(=O)O)cc1 [SBI-0754480] |  | 5 to 10 | 32 | 31 | 24 | > 20 µM |  |
| CCOc1ccccc1N1CCN(c2ccc(NC(=O)c3ccc(OC)cc3)c(C(=O)O)c2)CC1 [SBI-0800683] | 20 | ~20 | > 40 | 20 | 37 | SBI- 0800683.0001 (IC50 ~20 μM, tox >20 μM) | EC50 ([1]; Cricetulus griseus, CHO, Table 2): ~20 µM; IC50 ([1]; Cricetulus griseus, CHO, Table 4B, read-out: DFMO/CHO IC50): 20 µM; EC50 (CHO cells [2]; CHO, Table 2, Active in Ant44 assay?, read-out: Ant44 assay EC50 in CHO): ~20 µM; Active in Ant44 assay? (CHO cells [2]; Table 2, in CHO): Yes; Ant44 IC50 (CHO cells [2]; Table 4B, CHO cells): trace; CHO MTD (CHO cells [3]; hamster): 20 µM; CHO MTD EC50 (CHO cells [3]; hamster): (37) μM; Tox (Ant44) (CHO cells [3]): SBI- 0800683.0001 (20 μM EC50) Tox >20 μM |
| COc1ccccc1C(=O)Nc1ccc(N2CCN(Cc3ccccc3)CC2)cc1C(=O)O [SBI-0814414, 5-(4-benzylpiperazin-1-yl)-2-(2-methoxybenzamido)benzoic acid] | > 40 |  | > 40 |  | > 40 |  |  |
| COc1ccccc1C(=O)Nc1ccc(N2CCN(C(=O)c3ccccn3)CC2)cc1C(=O)O [SBI-0814424, 2-(2-methoxybenzamido)-5-(4-picolinoylpiperazin-1-yl)benzoic acid] | > 40 |  | > 40 |  | > 40 |  |  |
| COc1ccc(C(=O)Nc2ccc(N3CCN(c4cc(Cl)ccc4C)CC3)c(C(=O)O)c2)cc1 [SBI-0800662] | 5 | ~5 | > 40 |  | 14 |  | Ant44 EC50 (CHO cells [2]; [8]): SBI- 0800662.0001 No effect |
| COC(=O)c1cc(N2CCN(c3cc(Cl)ccc3C)CC2)ccc1NC(=O)c1ccc(OC)cc1 [SBI-0801722, methyl 5-(4-(5-chloro-2-methylphenyl)piperazin-1-yl)-2-(4-methoxybenzamido)benzoate] | > 40 |  | > 40 |  | > 40 |  |  |
| COc1ccc(C(=O)Nc2ccc(N3CCN(c4cc(Cl)ccc4C)CC3)cc2C(=O)O)c(OC)c1 [SBI-0801324, 5-(4-(5-chloro-2-methylphenyl)piperazin-1-yl)-2-(2,4-dimethoxybenzamido)benzoic acid] | > 40 |  | > 40 | 31 | > 40 | Non tox | DFMO Assay IC40 ([1]; Table 1, CHO cells): 31 µM |
| COc1ccc(C(=O)Nc2ccc(N3CCN(c4cccc(C)c4C)CC3)cc2C(=O)O)cc1 [SBI-0800686] |  | ~5 |  | ~10 |  | SBI- 0800686.0001 (IC50 ~5, tox >5) μM | Tox (Ant44) (CHO cells [3]): SBI- 0800686.0001 Tox >10, EC50 near 10 μM |
| COc1ccccc1N1CCN(c2ccc(NC(=O)c3ccccc3Cl)c(C(=O)O)c2)CC1 [SBI-0800670] |  | 10 to 15 | 16 | 20 | 36 | > 15 µM | Tox (Ant44) (CHO cells [3]): SBI- 0800670.0001 (20 EC50) Tox >20 μM |
| Cc1cccc(N2CCN(c3ccc(NC(=O)c4ccccc4F)cc3C(=O)O)CC2C)c1 (stereo not drawn) [SBI-0800663] | > 40 |  |  |  | > 40 |  |  |
| NCCC[C@](N)(C(=O)O)C(F)F [DFMO, alpha-difluoromethylornithine, reference compound] |  |  |  |  |  |  | IC50 (CHO cells [3]; Cricetulus griseus, CHO, 48 h, read-out: 48 h IC50): 4200 µM |
| Cc1ccc(C)c(N2CCN(c3ccc(N4C(=O)CC(c5ccccc5)C4=O)cc3[N+](=O)[O-])CC2)c1 (stereo not drawn) [SBI-0372958] | 27 |  |  |  | 32 |  |  |
